Measurements reported in article PMC4226810 (Journal of pharmacokinetics and pharmacodynamics, 2014).
Like-named read-outs stand apart in the source and are kept apart here.

Experiments:
[1] = test system: Rb^S780 phosphorylation (biomarker of CDK4/6 activity); experiment: Subcutaneous MOLM13 tumor cellular signaling: pRb; details: 50 mg/Kg QD multiple-day dosing, at 240 hr; baseline pRb(0) 82,600
[2] = test system: STAT5^Y694 phosphorylation (biomarker of FLT3^ITD activity); experiment: Subcutaneous MOLM13 tumor cellular signaling: pSTAT5; format: in vivo, mouse; details: for inhibition of phosphorylation of STAT5 at the time of maximum effect: subcutaneous tumor
MOLM13-Luc tumors = experiment: Orthotopic tumor burden; format: in vivo, mouse; details: population mean
[3] = Plasma pharmacokinetics after oral administration in MOLM13 xenograft mice; format: in vivo, mouse; details: for Km: CrTac:NCR-Foxn1nu nude; for Vmax: Michaelis-Menten elimination; for Vmax / V: one compartment model
[4] = test system: STAT5^Y694 phosphorylation; experiment: Orthotopic MOLM13-Luc tumor cellular signaling: pSTAT5; format: in vivo, mouse; details: model estimate (%RSE)
[5] = absorption rate constant fixed based on previous studies ref 21, cited from earlier work
[6] = Fraction unbound by modified ultra-filtration method; format: in vitro ADME; details: plasma

Compound | measured value of pRb (mean+/−sd) [1] | ratio of IC50 on pSTAT5, subcutaneous xenograft over orthotopic xenograft ([2]; 27.7 nM vs 6.08 nM) [fold] | measured value of pSTAT5 (mean+/−sd) ([2]; 50 mg/Kg QD multiple-day dosing, at 240 hr, baseline pSTAT5(0) 18,000) | inhibition of phosphorylation of STAT5 at the time of maximum effect ([2]; single dose 150mg/kg oral) | HR Hill coefficient (MOLM13-Luc tumors; pRb term of orthotopic tumor burden model) | HS Hill coefficient (MOLM13-Luc tumors; pSTAT5 term of orthotopic tumor burden model) | Km ([3]; mouse, plasma, oral) [µM] | Vmax ([3]; estimate (%RSE)) | ka ([3]; absorption rate constant, estimate (%RSE)) | V ([3]; estimate (%RSE)) | Hill coefficient of pSTAT5 inhibition (HAMG) [4] | ka (Fixed) [5] [h⁻¹] | ka (Fixed) ([5]; listed as Sorafenib) | inhibition of phosphorylation of STAT5 at the time of maximum effect ([2]; single dose 10mg/kg oral) | ratio of IC50 for pSTAT5 inhibition to IC50 for pRb inhibition ([2]; subcutaneous tumor signaling model) [fold] | fraction unbound [6] | k el ([3]; CrTac:NCR-Foxn1^nu nude, mouse, plasma, oral) [s⁻¹]
C[C@H]1CC[C@H](n2c3cnccc3c3cnc(Nc4ccc5c(n4)CCN(C(=O)CO)C5)nc32)CC1 [AMG925] | 72870+/−1247 | 4 | 17020+/−1133 | almost completely inhibit | 14.9 | 15.1 | 0.0945 | 4.16 (3.1) nmol/h | 1.00 (20) h^−1 | 0.109 (7.4) L | 1.92 (4.9) | – | – | – | – | – | –
CNC(=O)c1cc(Oc2ccc(NC(=O)Nc3ccc(Cl)c(C(F)(F)F)c3)cc2)ccn1 [sorafenib] | – | – | – | – | – | – | 0.00985 | 0.0736 (12) nmol/h | – | 0.0247 (4.4) L | – | 3 | 3 (Fixed) h^−1 | almost completely inhibit | 17 | – | –
CC(C)(C)c1cc(NC(=O)Nc2ccc(-c3cn4c(n3)sc3cc(OCCN5CCOCC5)ccc34)cc2)no1 [AC220, quizartinib] | – | – | – | – | – | – | – | – | – | 0.0964 (10) L | – | – | – | – | – | 0.0107 | 5.31e-05
